Read-outs that look alike come from different tables or passages of the source.
How the values were obtained:
c-Src = c-Src (Homo sapiens (Human), UniProt P12931); assay: c-Src enzyme inhibition (FRET, Z-LYTE); type: biochemical
Outline: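 Syk or c-Src enzyme (3000 or 2000 ng/mL solutions) was preincubated 2 h at RT with compound solutions at 1, 0.1, 0.01 or 0.001 µg/mL. Z-LYTE FRET peptide (8 µM solution) and ATP (800 µM solution for c-Src, 60 µM for Syk) were then added for 1 h, followed by protease development for 1 h. Phosphorylation was read as the coumarin/fluorescein emission ratio.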

[1] = tested on: adoptive transfer (CD45RBhigh cells) colitis in SCID mice; assay: Adoptive transfer in mice (in vivo v); design: species or system mouse; conditions: adoptive transfer mouse model
Method: On Study day 0, female Balb/C mice are terminated and spleens obtained for CD45RB^high cell isolation (Using SCID IBD cell Separation protocol). Approximately 4×10^5 cells/mL CD45RB^high cells are then injected intraperitoneally (100 μL/mouse) into female SCID animals. On study day 14, mice are weighed and randomized into treatment groups based on body weight. On Day 14, compounds are administered BID, via oral gavage, in a peanut oil vehicle at the dose levels outlined below in Tables 6a and 6b and a dose volume of 5 mL/kg. Treatment continues until study day 42, at which point the animals are necropsied 4 hours after the morning administration. The colon length and weight are recorded and used as a secondary endpoint in the study as a measurement of colon oedema. The colon is then divided into six cross-sections, four of which are used for histopathology scoring (primary endpoint) and two are homogenised for cytokine analysis. Data shown is the % inhibition of the induction window between naïve animals and vehicle animals, where higher inhibition implies closer to the non-diseased, naïve, phenotype.

[2] = Plasma pharmacokinetics in rats, single intravenous or oral administration; type: in vivo, rat (male Wistar); conditions: rats
Method: Studies were conducted by Sai Life Sciences (Hinjewadi, Pune, India) to investigate the plasma pharmacokinetics and total colon tissue distribution of compounds of the invention. In particular, pharmacokinetic studies were carried out in: • male C57BL/6 mice, following a single oral administration; and • male Wistar rats following a single intravenous or oral administration.

[3] = tested on: β-catenin in d-U937 cells; assay: Accumulation of β catenin in d-U937 cells (assay m); type: cell-based, human
Outline: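 U937 cells were differentiated with PMA (100 ng/mL) for 48–72 hr, then treated with compound or vehicle for 18 hr. After formaldehyde fixation, β-catenin was detected with a primary antibody and an HRP secondary using TMB (OD450–655). Signal was normalised to crystal violet cell staining (OD595).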

[4] = biological target: human ether a go-go (hERG) channel (Homo sapiens (Human), UniProt Q12809); assay: hERG inhibition (IonWorks patch clamp electrophysiology); type: cell-based; conditions: IonWorks patch clamp
Sequence of human ether a go-go (hERG) channel (Q12809 whole entry): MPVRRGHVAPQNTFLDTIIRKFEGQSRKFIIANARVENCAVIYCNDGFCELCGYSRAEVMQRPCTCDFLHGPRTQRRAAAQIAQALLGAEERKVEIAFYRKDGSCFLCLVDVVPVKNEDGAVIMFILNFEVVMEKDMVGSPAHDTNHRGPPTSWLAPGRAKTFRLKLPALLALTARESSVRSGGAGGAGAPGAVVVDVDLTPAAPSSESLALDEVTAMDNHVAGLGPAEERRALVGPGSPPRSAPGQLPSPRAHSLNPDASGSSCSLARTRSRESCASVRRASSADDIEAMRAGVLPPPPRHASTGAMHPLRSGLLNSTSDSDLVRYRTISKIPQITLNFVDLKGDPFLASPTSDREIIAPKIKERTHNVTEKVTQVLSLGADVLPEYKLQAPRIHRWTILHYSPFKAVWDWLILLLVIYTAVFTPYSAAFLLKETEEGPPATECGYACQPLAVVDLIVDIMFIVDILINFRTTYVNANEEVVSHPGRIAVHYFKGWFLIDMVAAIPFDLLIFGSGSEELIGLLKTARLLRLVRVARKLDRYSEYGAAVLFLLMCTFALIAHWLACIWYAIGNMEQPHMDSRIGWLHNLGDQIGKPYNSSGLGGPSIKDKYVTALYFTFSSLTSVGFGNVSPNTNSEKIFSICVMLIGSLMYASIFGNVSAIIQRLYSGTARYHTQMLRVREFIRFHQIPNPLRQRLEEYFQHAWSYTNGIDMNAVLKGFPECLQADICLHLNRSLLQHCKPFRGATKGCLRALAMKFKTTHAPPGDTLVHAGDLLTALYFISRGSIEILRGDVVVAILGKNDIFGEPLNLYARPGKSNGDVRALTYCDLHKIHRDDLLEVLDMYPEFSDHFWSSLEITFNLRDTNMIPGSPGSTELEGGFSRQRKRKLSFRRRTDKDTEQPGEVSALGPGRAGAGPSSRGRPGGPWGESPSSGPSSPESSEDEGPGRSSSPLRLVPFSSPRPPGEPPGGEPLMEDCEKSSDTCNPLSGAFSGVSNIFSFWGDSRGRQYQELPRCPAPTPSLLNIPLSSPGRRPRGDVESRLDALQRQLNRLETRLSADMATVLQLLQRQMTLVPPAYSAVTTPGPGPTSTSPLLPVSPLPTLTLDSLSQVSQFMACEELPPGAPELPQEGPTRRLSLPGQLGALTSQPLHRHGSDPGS
Method: (§1) Compounds of the invention were tested for inhibition of the human ether a go-go (hERG) channel using IonWorks™ patch clamp electrophysiology at Essen Bioscience (Welwyn Garden City, England).

hERG channel = hERG channel (Homo sapiens (Human), UniProt Q12809); assay: as above; type: cell-based; conditions: human, 3 μM
Sequence of hERG channel (Q12809 whole entry): as above
Method: as §1

non-mutant kinases = type: binding; conditions: for KinomeScan Selectivity Score S(10): (number of non-mutant kinases with % Ctrl <10)/(number of non-mutant kinases tested); for KinomeScan Selectivity Score S(35): (number of non-mutant kinases with % Ctrl <35)/(number of non-mutant kinases tested); for number of individual kinase hits, S(1): non-mutant kinases with % Ctrl <1; for number of individual kinase hits, S(10): non-mutant kinases with % Ctrl <10; for number of individual kinase hits, S(35): non-mutant kinases with % Ctrl <35
Method: These assays may be conducted by DiscoverX (formerly Ambit; San Diego, Calif.). The percentage inhibition produced by incubation with a test compound may be calculated relative to the non-inhibited control.

CYP3A4 = CYP3A4 (Homo sapiens (Human), UniProt P08684); assay: CYP3A4 inhibition study; type: in vitro ADME; conditions: for inhibition at 15 µM: human, read-out: 15 μM % Inh
Sequence of CYP3A4 (P08684 whole entry): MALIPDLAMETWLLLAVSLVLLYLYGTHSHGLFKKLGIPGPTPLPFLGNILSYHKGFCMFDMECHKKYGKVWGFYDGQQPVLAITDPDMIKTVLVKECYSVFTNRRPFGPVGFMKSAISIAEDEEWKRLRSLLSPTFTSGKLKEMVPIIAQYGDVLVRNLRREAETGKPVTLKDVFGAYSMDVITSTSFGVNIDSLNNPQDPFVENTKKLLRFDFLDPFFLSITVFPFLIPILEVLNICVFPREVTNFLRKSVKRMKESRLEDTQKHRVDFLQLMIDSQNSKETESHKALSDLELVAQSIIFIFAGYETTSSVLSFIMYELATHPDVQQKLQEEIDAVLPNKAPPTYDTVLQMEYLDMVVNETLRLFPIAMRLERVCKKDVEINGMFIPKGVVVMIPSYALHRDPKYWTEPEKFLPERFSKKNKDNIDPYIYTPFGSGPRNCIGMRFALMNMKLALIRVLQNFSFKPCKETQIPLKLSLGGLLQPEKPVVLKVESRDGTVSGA
Method: Assessment of certain in vitro ADME (absorption, distribution, metabolism, and excretion) parameters for certain compounds of the invention was conducted by BioFocus (Saffron Walden, UK).

[5] = male, Wistar, rat, plasma, intravenous 0.25 mg/kg

Sequence of c-Src (P12931 whole entry, looked up): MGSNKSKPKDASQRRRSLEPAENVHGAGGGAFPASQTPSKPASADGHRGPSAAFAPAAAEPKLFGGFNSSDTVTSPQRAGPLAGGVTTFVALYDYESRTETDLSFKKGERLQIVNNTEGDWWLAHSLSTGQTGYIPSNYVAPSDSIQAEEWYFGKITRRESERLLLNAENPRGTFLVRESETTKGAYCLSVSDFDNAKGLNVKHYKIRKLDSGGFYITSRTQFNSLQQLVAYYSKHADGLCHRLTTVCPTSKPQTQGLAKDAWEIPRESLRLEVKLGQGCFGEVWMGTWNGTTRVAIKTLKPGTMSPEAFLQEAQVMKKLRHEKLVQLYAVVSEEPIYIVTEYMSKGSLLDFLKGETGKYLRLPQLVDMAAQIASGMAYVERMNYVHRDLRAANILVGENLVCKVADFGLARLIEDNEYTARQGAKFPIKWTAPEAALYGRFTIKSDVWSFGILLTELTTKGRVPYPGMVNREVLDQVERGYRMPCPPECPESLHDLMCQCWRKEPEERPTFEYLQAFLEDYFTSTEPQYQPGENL

## COCCOCCOCCNC(=O)c1cc(Nc2cc(Oc3ccc(NC(=O)Nc4cc(C(C)(C)C)cc(NS(C)(=O)=O)c4OC)c4ccccc34)ccn2)cc(OC)c1 [Example 3, 3-((4-((4-(3-(5-(tert-Butyl)-2-methoxy-3-(methylsulfonamido)phenyl)ureido)naphthalen-1-yl)oxy)pyridin-2-yl)amino)-5-methoxy-N-(2-(2-(2-methoxyethoxy)ethoxy)ethyl)benzamide]
c-Src
  IC50: 20 nM
[1]
  activity in T cell driven in vivo model of colonic inflammation (relative ratios of colon weight to length): significant activity
[1]; 3 mg/kg BID oral
  Colon weight:length: 0.039 ± 0.003
[2]; [5]
  AUC(0-inf): 821 ng·h/mL
  AUC(0-t): 820 ng·h/mL
  half-life: 12 min
[2]; male, Wistar, rat, plasma, intravenous 0.25 mg/kg in 5% DMSO-7.5% Solutol HS15-87.5% normal saline
  C0: 4380 ng/mL
[2]; male, Wistar, rat, plasma, intravenous 0.25 mg/kg, read-out: Vss
  Vd: 0.1 L/kg
[2]; intravenous 0.25 mg/kg
  CI: 5.1 mL/min/kg
[2]; oral 5 mg/kg, vehicle C (Example 4) or B
  Fpo: 0.0%
[3]; test compound 1 μg/mL
  % β-catenin induction: 0%
[3]; test compound 5 μg/mL
  % β-catenin induction: 4%
[3]; test compound 10 μg/mL
  % β-catenin induction: 4%
[4]
  IC50: > 3000 nM
hERG channel
  inhibition at 3 µM: -2 ± 2%
non-mutant kinases; 50 nM
  KinomeScan Selectivity Score S(10): 0.023
  KinomeScan Selectivity Score S(35): 0.091
  number of individual kinase hits, S(1): 0
  number of individual kinase hits, S(10): 9
  number of individual kinase hits, S(35): 36
non-mutant kinases; 500 nM, (number of non-mutant kinases with % Ctrl <1)/(number of non-mutant kinases tested)
  KinomeScan Selectivity Score S(1): 0.046
non-mutant kinases; 500 nM
  KinomeScan Selectivity Score S(10): 0.149
  KinomeScan Selectivity Score S(35): 0.235
  number of individual kinase hits, S(1): 18
  number of individual kinase hits, S(10): 59
  number of individual kinase hits, S(35): 93
non-mutant kinases; as evidenced by lower selectivity scores
  selectivity compared to the Reference Compound: substantially improved selectivities
CYP3A4; CYP3A4, 0 min preincubation
  IC50: > 15 µM
  inhibition at 15 µM: 22%
CYP3A4; CYP3A4, 30 min preincubation
  IC50: > 15 µM
  inhibition at 15 µM: 51%

From patent US9481648B2, “Kinase inhibitors” (Respivert Limited, priority 2013, dated 2016)
